Data: US20230293535A1, “ERBB/BTK INHIBITORS” (Dizal (Jiangsu) Pharmaceutical Co., Ltd., priority 2018, published 2023)
Where a name gives a salt, the structure may show the parent alone. Read-outs that look alike come from different tables or passages of the source.

Assays:
Type in all cases: cell-based
Ri-1 cells = assay: BTK (wt) cell proliferation, Ri-1 (CellTiter-Glo, 72 h); conditions: Ri-1, 72 h, Ri-1 cells, 72 h, CellTiter-Glo; read-out: BTK WT Ri-1 GI50;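 also: viable cells quantified as cellular ATP luminescence, proliferation normalized to a time-zero plate and the DMSO control, compounds tested across a dilution series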
Method: (§1) OCI-LY-10 at 3,750 cells/well, TMD-8 and Ri-1 at 2,000 cells/well, and DB at 1,250 cells/well, respectively, were sorted into 384-well plates in RPMI1640 medium with 10% FBS. After overnight incubation, all cells were incubated with compound at a series of concentrations. Meanwhile, a duplicated plate of each cell line was prepared for measuring G0 value. The dosed plates were further incubated for 72 hours and the number of viable cells was measured by CellTiter-Glo® Luminescent Cell Viability Assay (Promega), a luminescent method for determining the number of viable cells through measurement of cellular ATP concentration using Envision plate reader (PerkinElmer). The percentage of proliferation was calculated as: % Proliferation = 100 × (G3 value of sample well - G0 value)/(G3 value of DMSO control - G0 value).

[1] = system: NCI-H1975 EGFR L858R/T790M cells; assay: Cell proliferation, NCI-H1975 EGFR L858R/T790M (CellTiter-Glo, 72 h); conditions: Homo sapiens, NCI-H1975, 72 h;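 also: viable cells quantified by luciferase-based ATP luminescence, proliferation expressed relative to DMSO-treated wells (100%) after subtracting a parallel plate read at the time of dosing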
OCI-LY-10 cells = assay: BTK (wt) cell proliferation, OCI-LY-10 (CellTiter-Glo, 72 h); conditions: Homo sapiens, OCI-Ly10, 72 h, OCI-LY-10 cells, 72 h, CellTiter-Glo; read-out: BTK WT OCI-LY-10 GI50;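 also: viable cells quantified via cellular ATP luminescence, proliferation given as percent of DMSO control after subtracting a duplicate plate read at time of dosing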
TMD-8 cells = assay: BTK (wt) cell proliferation, TMD-8 (CellTiter-Glo, 72 h); conditions: Homo sapiens, TMD8, 72 h, TMD-8 cells, 72 h, CellTiter-Glo; read-out: BTK WT TMD-8 GI50;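 also: viable cells quantified by ATP-based luminescence, proliferation expressed as percent of DMSO control after subtracting a time-zero baseline plate read at dosing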
DB cells = assay: BTK (wt) cell proliferation, DB (CellTiter-Glo, 72 h); conditions: Homo sapiens, DB, DB cells, CellTiter-Glo, read-out: Non-BCR activated DB GI50;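 also: DB cells in 384-well plates given a dilution series of compound, viable cells read by ATP luminescence, growth expressed versus DMSO control after subtracting a time-zero plate reading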
Method: as §1

Ba/F3 EGFR ASV ins cells = assay: Cell proliferation, Ba/F3 EGFR ASV ins (CellTiter-Glo, 72 h); conditions: Ba/F3 EGFR, 72 h;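 also: IL3-independent Ba/F3 cells transduced with EGFR V769_D770insASV, cellular ATP luminescence after compound exposure, growth relative to DMSO control with the day-0 baseline reading subtracted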
[2] = target: T1, human EGFR exon 20 V769_D770insASV (Homo sapiens, UniProt P00533, INS769ASV); assay: EGFR Exon20 ASV insertion cellular phosphorylation inhibition (MSD pEGFR Y1068/total EGFR); conditions: Ba/F3 EGFR ASV ins cells, 4 h compound, p-EGFR(Y1068)/total EGFR;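 also: electrochemiluminescent readout on an MSD SECTOR Imager, IL3-independent transduced cells in medium with 1% FBS, compound concentration series at 37 °C and 5% CO2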
T1 construct: expressed in transfected cells; host or cells: Ba/F3 (DSMZ ACC-300), lentiviral transduction, puromycin selection, IL3 depletion
Method: To generate the EGFR exon 20 V769_D770insASV transduced Ba/F3 cell line, the parental Ba/F3 cells were infected with the recombinant EGFR V769_D770insASV lentivirus and then followed by 1 µg/ml of puromycin selection and IL3 depletion. The resulting cell line expresses constitutively phosphorylated EGFR protein and proliferates in the absence of IL3, which could be used for in vitro PD and anti-proliferation assays.
One day before the test, WT or mutant cells were seeded in 96 well plates at appropriate concentrations with corresponding growth media supplemented with 1% FBS, and incubated overnight. The next day, tested compounds at a series of concentrations were added into each individual well of the plates, and the plates were incubated for 4 h at 37° C. with 5% CO2.
The EGFR (Y1068) phosphorylation level (activity) of cells in each well were then measured with MSD kit named “MULTI-SPOT®96 4-Spot HB Prototype EGFR Triplex [sequence]: pEGFR(Tyr1068),pEGFR(Tyr1173), Total EGFR” according to the manufacturer’s instruction (MESO SCALE DISCOVERY, Cat# N45ZB-1). The assay is an electrochemiluminescent method for determining both phosphorylated and total EGFR of cells with an MSD SECTOR® Imager and the ratio of p-EGFR/total EGFR can be generated by the machine. The Her2 (Y1248) phosphorylation level (activity) of cells in each well were measured with MSD Kit named “Phospho-ErbB2 (Tyr1248) Assay Whole Cell Lysate Kit” according to the manufacturer’s instruction (MESO SCALE DISCOVERY, Cat# K151CLD-3). The assay is an electrochemiluminescent method (MESO SCALE DISCOVERY) for determining both phosphorylated and total Her2 of cells with an MSD SECTOR® Imager and then the ratio of p-Her2/total Her2 can be generated by the machine.

EGFR L858R&T790M = target: T2, EGFR L858R&T790M (Homo sapiens, UniProt P00533, L858R/T790M); assay: EGFR L858R and T790M cellular phosphorylation inhibition in NCI-H1975 (MSD); conditions: NCI-H1975 cells, 4 h compound, p-EGFR(Y1068)/total EGFR; read-out: EGFR L858R and T790M mutation IC50;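 also: phosphorylated and total EGFR detected by electrochemiluminescence, cells exposed to compound in medium containing 1% FBS at 37 °C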
T2 construct: host or cells: NCI-H1975

[3] = target: T3, human EGFR exon 20 H773_V774insNPH (Homo sapiens, UniProt P00533, INS773NPH); assay: EGFR Exon20 NPH insertion cellular phosphorylation inhibition (MSD pEGFR Y1068/total EGFR); conditions: Ba/F3 EGFR NPH ins cells, 4 h compound, p-EGFR(Y1068)/total EGFR;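 also: IL3-independent Ba/F3 cells with constitutively phosphorylated EGFR, compound exposure at 37 °C under 5% CO2, electrochemiluminescent MSD measurement of the p-EGFR to total EGFR ratio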
T3 construct: host or cells: Ba/F3

[4] = system: Her2 exon 20 insertion YVMA transduced NIH-3T3 cell line; assay: Cell proliferation, Her2 YVMAins NIH-3T3 (CellTiter-Glo, 72 h); conditions: Mus musculus, NIH3T3, 72 h, Her2 YVMAins cells, 72 h proliferation; read-out: Her2 Exon 20 YVMA insertion GI50;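 also: viable cells quantified by ATP luminescence, growth over a day-zero baseline plate expressed as percent of DMSO control growth, compound dilution series in 10% FBS medium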
Ba/F3 EGFR NPH ins cells = assay: Cell proliferation, Ba/F3 EGFR NPH ins (CellTiter-Glo, 72 h); conditions: Ba/F3 EGFR, 72 h;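 also: IL3-independent cells carrying constitutively phosphorylated EGFR, compound dilution series, viable cells quantified by ATP luminescence, growth relative to DMSO wells after subtracting pre-dosing (day 0) baseline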
[5] = target: T4, human Her2 exon 20 insertion mutation YVMA (Homo sapiens, UniProt P04626, INS775YVMA); assay: Her2 Exon 20 YVMA insertion cellular phosphorylation inhibition (MSD p-Her2 Y1248/total Her2); conditions: Her2 YVMAins cells, 4 h compound;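 also: lentivirally transduced NIH-3T3 cells in 1% FBS medium, electrochemiluminescent MSD read-out, graded compound concentrations at 37 °C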
T4 construct: expressed in transfected cells; host or cells: NIH-3T3, lentiviral transduction, puromycin selection

WT EGFR cell line A-431 = assay: Cell proliferation, WT EGFR A431 (CellTiter-Glo, 72 h); conditions: Homo sapiens, A-431, 72 h;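 also: proliferation from a luminescent ATP viability signal, expressed as 100 × (treated minus time-zero plate) over (DMSO control minus time-zero plate), cells grown with 10% FBS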
WT EGFR = target: T5, WT EGFR (Homo sapiens, UniProt P00533); assay: WT EGFR cellular phosphorylation inhibition in A-431 (hEGF stimulated, MSD); conditions: A431 cells, 4 h compound, then 100 ng/ml hEGF 10 min;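 also: electrochemiluminescence read-out of EGFR Tyr1068 phosphorylation expressed as ratio to total EGFR, cells kept in medium with 1% FBS, compounds tested as a concentration series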
T5 construct: host or cells: A-431

[6] = NCI-H1975, 72 h proliferation, read-out: EGFR L858R and T790M mutation GI50
[7] = Ba/F3 EGFR ASV ins, 72 h proliferation, read-out: EGFR Exon20 ASV insertion GI50
[8] = Ba/F3 EGFR NPH ins, 72 h proliferation, read-out: EGFR Exon20 NPH insertion GI50
[9] = A431, 72 h proliferation, read-out: EGFR WT A431 GI50

T2 sequence (P00533 25-1210 T790M/L858R): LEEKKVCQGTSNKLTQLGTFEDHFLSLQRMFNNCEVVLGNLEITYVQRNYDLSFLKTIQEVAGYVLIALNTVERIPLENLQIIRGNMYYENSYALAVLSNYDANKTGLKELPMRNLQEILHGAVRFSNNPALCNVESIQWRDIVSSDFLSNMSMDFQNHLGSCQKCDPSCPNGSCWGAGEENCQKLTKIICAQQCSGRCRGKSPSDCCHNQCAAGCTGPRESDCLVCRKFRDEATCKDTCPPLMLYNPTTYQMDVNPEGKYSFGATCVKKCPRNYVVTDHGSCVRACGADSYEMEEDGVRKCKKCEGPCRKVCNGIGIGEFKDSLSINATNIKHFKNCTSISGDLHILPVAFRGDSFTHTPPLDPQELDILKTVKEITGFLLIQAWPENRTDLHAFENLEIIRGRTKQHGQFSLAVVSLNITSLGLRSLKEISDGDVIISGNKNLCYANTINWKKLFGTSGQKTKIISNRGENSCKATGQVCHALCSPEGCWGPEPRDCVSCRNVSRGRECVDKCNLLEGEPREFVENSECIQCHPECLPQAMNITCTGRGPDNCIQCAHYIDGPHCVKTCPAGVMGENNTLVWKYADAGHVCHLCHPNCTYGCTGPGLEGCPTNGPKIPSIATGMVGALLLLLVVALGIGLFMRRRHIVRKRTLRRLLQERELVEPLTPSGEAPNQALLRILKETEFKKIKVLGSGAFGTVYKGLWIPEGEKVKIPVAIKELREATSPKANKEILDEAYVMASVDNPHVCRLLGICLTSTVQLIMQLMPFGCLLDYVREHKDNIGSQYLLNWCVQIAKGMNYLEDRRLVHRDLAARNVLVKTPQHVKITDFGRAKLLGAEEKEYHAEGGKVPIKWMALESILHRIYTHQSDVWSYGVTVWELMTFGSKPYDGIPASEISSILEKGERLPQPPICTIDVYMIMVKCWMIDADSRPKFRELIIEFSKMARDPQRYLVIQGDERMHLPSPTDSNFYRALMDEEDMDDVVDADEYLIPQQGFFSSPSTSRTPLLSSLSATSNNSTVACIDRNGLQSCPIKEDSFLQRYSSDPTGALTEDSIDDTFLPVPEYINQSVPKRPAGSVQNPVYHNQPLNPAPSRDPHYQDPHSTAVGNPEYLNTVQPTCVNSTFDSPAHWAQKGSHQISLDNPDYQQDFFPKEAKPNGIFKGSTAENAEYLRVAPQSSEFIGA
T5 sequence (P00533 25-1210): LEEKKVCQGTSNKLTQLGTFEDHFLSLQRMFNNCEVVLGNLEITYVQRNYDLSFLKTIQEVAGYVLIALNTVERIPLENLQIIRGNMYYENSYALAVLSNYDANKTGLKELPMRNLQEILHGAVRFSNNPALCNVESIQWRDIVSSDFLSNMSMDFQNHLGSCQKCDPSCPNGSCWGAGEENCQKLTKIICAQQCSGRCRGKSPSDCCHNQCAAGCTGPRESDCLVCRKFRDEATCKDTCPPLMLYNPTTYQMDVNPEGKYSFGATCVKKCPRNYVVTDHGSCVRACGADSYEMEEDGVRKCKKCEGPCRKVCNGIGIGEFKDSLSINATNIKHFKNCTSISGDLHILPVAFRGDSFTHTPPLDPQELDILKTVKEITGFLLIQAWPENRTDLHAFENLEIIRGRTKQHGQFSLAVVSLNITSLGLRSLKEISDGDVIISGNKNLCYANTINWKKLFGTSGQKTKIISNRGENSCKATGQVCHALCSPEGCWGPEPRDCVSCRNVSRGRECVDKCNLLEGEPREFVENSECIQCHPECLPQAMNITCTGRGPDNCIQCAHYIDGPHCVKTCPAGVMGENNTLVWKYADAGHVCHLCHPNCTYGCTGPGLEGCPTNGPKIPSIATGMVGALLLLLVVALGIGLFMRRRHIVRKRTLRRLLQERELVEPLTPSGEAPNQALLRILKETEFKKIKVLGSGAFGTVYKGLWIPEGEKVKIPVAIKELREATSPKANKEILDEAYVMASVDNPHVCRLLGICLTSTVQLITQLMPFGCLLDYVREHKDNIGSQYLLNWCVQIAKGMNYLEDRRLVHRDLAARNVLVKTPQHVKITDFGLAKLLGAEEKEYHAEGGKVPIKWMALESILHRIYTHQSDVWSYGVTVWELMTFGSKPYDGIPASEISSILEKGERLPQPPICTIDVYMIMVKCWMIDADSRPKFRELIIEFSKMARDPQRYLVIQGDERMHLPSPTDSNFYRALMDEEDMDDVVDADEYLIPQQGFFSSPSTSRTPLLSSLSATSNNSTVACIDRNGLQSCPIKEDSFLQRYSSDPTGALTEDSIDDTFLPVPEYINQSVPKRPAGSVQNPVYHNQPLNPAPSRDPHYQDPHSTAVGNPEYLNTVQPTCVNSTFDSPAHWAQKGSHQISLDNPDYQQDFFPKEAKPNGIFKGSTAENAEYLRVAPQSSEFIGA
T3 sequence (P00533 with tags, fused parts or gaps INS773NPH): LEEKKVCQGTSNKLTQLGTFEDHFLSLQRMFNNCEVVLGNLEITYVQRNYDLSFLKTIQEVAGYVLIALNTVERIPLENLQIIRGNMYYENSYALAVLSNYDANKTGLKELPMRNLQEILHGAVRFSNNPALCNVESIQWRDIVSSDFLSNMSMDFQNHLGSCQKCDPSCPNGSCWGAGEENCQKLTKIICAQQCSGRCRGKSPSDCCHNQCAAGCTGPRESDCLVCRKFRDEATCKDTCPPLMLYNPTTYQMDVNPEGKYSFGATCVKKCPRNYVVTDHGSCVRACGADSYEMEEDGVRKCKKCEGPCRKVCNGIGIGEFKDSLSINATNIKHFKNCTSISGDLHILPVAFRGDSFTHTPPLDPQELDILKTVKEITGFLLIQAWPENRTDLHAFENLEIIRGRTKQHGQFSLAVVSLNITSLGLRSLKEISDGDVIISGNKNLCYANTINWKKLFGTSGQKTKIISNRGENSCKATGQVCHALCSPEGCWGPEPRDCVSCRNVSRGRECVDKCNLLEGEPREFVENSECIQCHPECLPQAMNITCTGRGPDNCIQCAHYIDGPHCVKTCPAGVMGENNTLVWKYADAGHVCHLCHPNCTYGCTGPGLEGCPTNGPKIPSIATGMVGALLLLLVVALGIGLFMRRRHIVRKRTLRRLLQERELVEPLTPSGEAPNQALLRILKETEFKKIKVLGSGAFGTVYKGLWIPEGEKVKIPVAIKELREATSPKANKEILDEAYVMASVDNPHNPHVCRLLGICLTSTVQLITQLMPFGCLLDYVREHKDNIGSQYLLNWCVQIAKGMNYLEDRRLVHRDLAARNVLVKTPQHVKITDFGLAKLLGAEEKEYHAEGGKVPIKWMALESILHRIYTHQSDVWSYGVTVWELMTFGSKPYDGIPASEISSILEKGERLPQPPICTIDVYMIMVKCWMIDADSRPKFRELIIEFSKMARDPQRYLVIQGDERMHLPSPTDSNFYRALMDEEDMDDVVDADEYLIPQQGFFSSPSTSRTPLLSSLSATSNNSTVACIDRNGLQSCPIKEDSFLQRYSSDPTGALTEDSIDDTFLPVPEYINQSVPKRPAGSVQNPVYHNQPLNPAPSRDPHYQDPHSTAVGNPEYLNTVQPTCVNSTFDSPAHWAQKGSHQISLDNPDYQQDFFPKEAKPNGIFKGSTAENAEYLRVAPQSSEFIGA
T4 sequence (P04626 with tags, fused parts or gaps INS775YVMA): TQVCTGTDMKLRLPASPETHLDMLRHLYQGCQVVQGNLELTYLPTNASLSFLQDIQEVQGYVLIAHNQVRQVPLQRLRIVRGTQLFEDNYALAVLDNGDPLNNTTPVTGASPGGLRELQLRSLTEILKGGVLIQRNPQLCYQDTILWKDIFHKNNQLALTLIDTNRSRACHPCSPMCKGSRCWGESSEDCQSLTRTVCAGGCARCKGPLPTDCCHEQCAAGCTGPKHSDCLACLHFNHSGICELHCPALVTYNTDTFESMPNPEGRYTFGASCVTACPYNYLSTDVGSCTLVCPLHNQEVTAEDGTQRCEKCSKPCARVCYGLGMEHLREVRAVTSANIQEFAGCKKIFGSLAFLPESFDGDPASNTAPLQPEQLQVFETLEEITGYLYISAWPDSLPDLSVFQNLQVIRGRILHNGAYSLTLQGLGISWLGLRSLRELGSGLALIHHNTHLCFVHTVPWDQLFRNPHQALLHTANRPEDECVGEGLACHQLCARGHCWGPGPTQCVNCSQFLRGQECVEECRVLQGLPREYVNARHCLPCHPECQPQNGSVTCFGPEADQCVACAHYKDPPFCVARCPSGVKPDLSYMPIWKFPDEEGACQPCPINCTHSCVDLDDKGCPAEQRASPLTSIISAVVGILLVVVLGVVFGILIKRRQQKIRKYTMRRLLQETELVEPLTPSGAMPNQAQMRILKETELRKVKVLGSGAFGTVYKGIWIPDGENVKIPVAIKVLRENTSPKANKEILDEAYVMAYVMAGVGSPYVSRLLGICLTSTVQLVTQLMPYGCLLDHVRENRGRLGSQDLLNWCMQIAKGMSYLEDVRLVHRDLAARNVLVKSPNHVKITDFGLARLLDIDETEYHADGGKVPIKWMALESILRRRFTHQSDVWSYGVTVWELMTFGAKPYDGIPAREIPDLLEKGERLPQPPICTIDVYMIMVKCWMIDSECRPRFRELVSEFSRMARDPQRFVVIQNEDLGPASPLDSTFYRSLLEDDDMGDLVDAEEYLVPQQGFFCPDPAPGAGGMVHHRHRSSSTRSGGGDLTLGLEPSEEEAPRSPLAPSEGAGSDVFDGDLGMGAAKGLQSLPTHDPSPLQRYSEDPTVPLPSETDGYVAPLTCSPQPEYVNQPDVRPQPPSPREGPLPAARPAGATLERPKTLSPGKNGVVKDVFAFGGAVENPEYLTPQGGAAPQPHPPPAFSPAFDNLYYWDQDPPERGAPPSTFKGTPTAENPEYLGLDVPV

Structure (SMILES) | GI50 [1, 6] [nM] | GI50 (OCI-LY-10 cells) [µM] | GI50 (Ba/F3 EGFR ASV ins cells; [7]) [nM] | IC50 [2] [µM] | IC50 (EGFR L858R&T790M) [µM] | IC50 [3] [µM] | GI50 (Ba/F3 EGFR NPH ins cells; [8]) [nM] | IC50 [5] [µM] | GI50 (WT EGFR cell line A-431; [9]) [nM] | IC50 (WT EGFR) [µM] | GI50 (Ri-1 cells) [µM] | GI50 (TMD-8 cells) [µM] | GI50 (DB cells) [µM] | GI50 [4] [µM] | GI50 ([1]; read-out: EGFR L858R and T790M mutation GI50 (nM)) [nM] | GI50 (Ba/F3 EGFR ASV ins cells; read-out: EGFR Exon20 ASV insertion GI50 (nM)) [nM] | GI50 (Ba/F3 EGFR NPH ins cells; read-out: EGFR Exon20 NPH insertion GI50 (nM)) [nM] | GI50 (WT EGFR cell line A-431; read-out: EGFR WT A431 GI50 (nM)) [nM]
C=CC(=O)Nc1cc(Nc2ncnc(Nc3cc(Cl)c(F)cc3C(C)(O)CC)n2)c(OC)cc1N1CC[C@@H]1CN(C)C (stereo partly drawn) [Compound 56, N-(5-(4-(5-chloro-4-fluoro-2-(2-hydroxybutan-2-yl)phenylamino)-1,3,5-triazin-2-ylamino)-2-((R)-2-((dimethylamino)methyl)azetidin-1-yl)-4-methoxyphenyl)acrylamide] | 4.2 | 0.0146 | 45.1 | 0.0155 | 0.001 | 0.0178 | 63.8 | 0.0078 | 14.3 | 0.0354 | 0.0134 | 0.00707 | > 3 | 0.0766 | – | – | – | –
C=CC(=O)Nc1cc(Nc2ncnc(Nc3cc(Cl)c(F)cc3C(C)(C)O)n2)c(OC)cc1N1CC[C@H](N(C)C)C1 [Compound 60, (S)-N-(5-(4-(5-chloro-4-fluoro-2-(2-hydroxypropan-2-yl)phenylamino)-1,3,5-triazin-2-ylamino)-2-(3-(dimethylamino)pyrrolidin-1-yl)-4-methoxyphenyl)acrylamide] | 2.5 | 0.0135 | 76.3 | 0.0223 | 0.0013 | 0.0289 | 48.6 | 0.0116 | 25 | 0.0507 | 0.0389 | 0.0115 | > 3 | 0.102 | – | – | – | –
C=CC(=O)Nc1cc(Nc2ncnc(Nc3ccccc3C(C)(O)C(F)(F)F)n2)c(OC)cc1N(C)CCN(C)C (centres unmarked) [Compound 66, N-(2-((2-(dimethylamino)ethyl)(methyl)amino)-4-methoxy-5-(4-(2-(1,1,1-trifluoro-2-hydroxypropan-2-yl)phenylamino)-1,3,5-triazin-2-ylamino)phenyl) acrylamide] | 2.3 | > 3 | 25.4 | 0.0096 | 0.0006 | 0.0208 | 22.6 | 0.0082 | 14.9 | 0.0236 | > 3 | 0.582 | > 3 | 0.0291 | – | – | – | –
C=CC(=O)Nc1cc(Nc2ncnc(Nc3cc(Cl)c(F)cc3C(C)(O)CC)n2)c(OC)cc1N(C)CCN(C)C (centres unmarked) [Compound 67, N-(5-(4-(5-chloro-4-fluoro-2-(2-hydroxybutan-2-yl)phenylamino)-1,3,5-triazin-2-ylamino)-2-((2-(dimethylamino)ethyl)(methyl)amino)-4-methoxyphenyl)acrylamide] | 2.5 | 0.0204 | 21.9 | 0.0101 | 0.0006 | 0.0136 | 32.8 | 0.0043 | 18.7 | 0.0266 | 0.0479 | 0.016 | > 3 | 0.0463 | – | – | – | –
C=CC(=O)Nc1cc(Nc2ncnc(Nc3cc(Cl)c(F)cc3C3(O)CCC3)n2)c(OC)cc1N(C)CCN(C)C [Compound 72, N-(5-(4-(5-chloro-4-fluoro-2-(1-hydroxycyclobutyl)phenylamino)-1,3,5-triazin-2-ylamino)-2-((2-(dimethylamino)ethyl)(methyl)amino)-4-methoxyphenyl)acrylamide formic acid salt] | – | 0.0029 | – | 0.008 | 0.0006 | 0.0187 | – | 0.0089 | – | 0.0262 | 0.0333 | 0.0073 | > 3 | 0.0389 | 4.1 | 42.3 | 46.1 | 10.4

Further compounds by falling GI50 [1, 6], results first:

GI50 [1, 6] [nM] | GI50 (OCI-LY-10 cells) [µM] | GI50 (Ba/F3 EGFR ASV ins cells; [7]) [nM] | IC50 [2] [µM] | IC50 (EGFR L858R&T790M) [µM] | IC50 [3] [µM] | GI50 (Ba/F3 EGFR NPH ins cells; [8]) [nM] | IC50 [5] [µM] | GI50 (WT EGFR cell line A-431; [9]) [nM] | IC50 (WT EGFR) [µM] | Structure (SMILES) | GI50 (Ri-1 cells) [µM] | GI50 (TMD-8 cells) [µM] | GI50 (DB cells) [µM] | GI50 [4] [µM] | GI50 ([1]; read-out: EGFR L858R and T790M mutation GI50 (nM)) [nM] | GI50 (Ba/F3 EGFR ASV ins cells; read-out: EGFR Exon20 ASV insertion GI50 (nM)) [nM] | GI50 (Ba/F3 EGFR NPH ins cells; read-out: EGFR Exon20 NPH insertion GI50 (nM)) [nM] | GI50 (WT EGFR cell line A-431; read-out: EGFR WT A431 GI50 (nM)) [nM]
13.1 | 0.32 | 251 | 0.0773 | 0.0036 | 0.297 | 210 | 0.117 | 178 | 0.627 | C=CC(=O)Nc1cc(Nc2ncnc(Nc3cc(F)c(F)cc3C(C)(O)CC)n2)c(OC)cc1N1CCC[C@H]1CN(C)C (stereo partly drawn) [Compound 58, N-(5-(4-(4,5-difluoro-2-(2-hydroxybutan-2-yl)phenylamino)-1,3,5-triazin-2-ylamino)-2-((S)-2-((dimethylamino)methyl)pyrrolidin-1-yl)-4-methoxyphenyl)acrylamide] | 0.372 | 0.262 | > 3 | 0.553 | – | – | – | –
8.3 | 0.0124 | 89.8 | 0.0311 | 0.0013 | 0.051 | 74.7 | 0.0196 | 34.9 | 0.213 | C=CC(=O)Nc1cc(Nc2nccc(Nc3cc(Cl)c(Cl)cc3C(C)(C)O)n2)c(OC)cc1N1CC[C@@H]1CN(C)C [Compound 71, (R)-N-(5-(4-(4,5-dichloro-2-(2-hydroxypropan-2-yl)phenylamino)pyrimidin-2-ylamino)-2-(2-((dimethylamino)methyl)azetidin-1-yl)-4-methoxyphenyl)a crylamide] | 0.0235 | 0.0048 | 2.95 | 0.0862 | – | – | – | –
3.2 | 0.0053 | 34.8 | 0.0107 | 0.0005 | 0.0193 | 45.8 | 0.0114 | 13.3 | 0.0274 | C=CC(=O)Nc1cc(Nc2ncnc(Nc3cc(F)c(Cl)cc3C(C)(C)O)n2)c(OC)cc1N1CC[C@@H]1CN(C)C [Compound 62, (R)-N-(5-(4-(4-chloro-5-fluoro-2-(2-hydroxypropan-2-yl)phenylamino)-1,3,5-triazin-2-ylamino)-2-(2-((dimethylamino)methyl)azetidin-1-yl)-4-methoxyphenyl)acrylamide] | 0.084 | 0.00379 | > 3 | 0.114 | – | – | – | –
1.3 | 0.072 | 11.4 | 0.0071 | 0.0004 | 0.0085 | 14.8 | 0.0026 | 6.1 | 0.0105 | C=CC(=O)Nc1cc(Nc2ncnc(Nc3cc(F)c(F)cc3C(C)(O)CC)n2)c(OC)cc1N1CCC[C@@H]1CN(C)C (stereo partly drawn) [Compound 57, N-(5-(4-(4,5-difluoro-2-(2-hydroxybutan-2-yl)phenylamino)-1,3,5-triazin-2-ylamino)-2-((R)-2-((dimethylamino)methyl)pyrrolidin-1-yl)-4-methoxyphenyl)acrylamide] | 0.0346 | 0.0229 | > 3 | 0.0187 | – | – | – | –
1.1 | 0.0633 | 13.6 | 0.0064 | 0.0004 | 0.0059 | 17.2 | 0.0014 | 4.4 | 0.0143 | C=CC(=O)Nc1cc(Nc2ncnc(Nc3cc(Cl)c(F)cc3C(C)(O)CC)n2)c(OC)cc1N1CCC[C@@H]1CN(C)C (stereo partly drawn) [Compound 63, N-(5-(4-(5-chloro-4-fluoro-2-(2-hydroxybutan-2-yl)phenylamino)-1,3,5-triazin-2-ylamino)-2-((R)-2-((dimethylamino)methyl)pyrrolidin-1-yl)-4-methoxyphenyl)acrylamide] | 0.0149 | 0.0116 | > 3 | 0.0236 | – | – | – | –
